In brackets after ≈: the same amount, converted by molar mass. Where two headings read alike, the source gives them in different places.
Tests used:
SW948CPTH cells = assay: cell cycle analysis; format: cell-based, human
[1] = test system: SW948 colon carcinoma cells; assay: induction of early apoptosis (annexin V-FITC / propidium iodide, FACS); format: cell-based, human; conditions: SW948 in vitro, 4 days post-treatment (FIG. 10)
Excerpt: 14. […] Floating and adherent cells were collected 4 days post-treatment. The treatments are described in the legend for FIG. 8. The cells were stained with annexin V-FITC and propidium iodide, then analyzed by FACS using CellQuest software (Beckton-Dickenson, San Diego, Calif.). Data points are the average±SEM of a representative experiment done in triplicate.

SW948CPTL cells [2] = assay: clonogenic assay, CPT-11 IC50; format: cell-based; conditions: Homo sapiens, read-out: CPT-11 IC50
Procedure: 8. […] IC50 was determined using a clonogenic assay.

SW948CPTL cells [3] = assay: cell cycle analysis; format: cell-based, human

CCc1c2c(nc3ccc(OC(=O)N4CCC(N5CCCCC5)CC4)cc13)-c1cc3c(c(=O)n1C2)COC(=O)[C@]3(O)CC [CPT-11, Irinotecan]
G0-G1(%) (SW948CPTH cells; CPT-11 1 μg/ml): 45.7 ± 6.2% | G2-M(%) (SW948CPTH cells; CPT-11 1 μg/ml): 8.3 ± 3.1% | S(%) (SW948CPTH cells; CPT-11 1 μg/ml): 46 ± 7.5% | G0-G1(%) (SW948CPTH cells; CPT-11 2 μg/ml): 44.6 ± 3.8% | G2-M(%) (SW948CPTH cells; CPT-11 2 μg/ml): 8.9 ± 1.9% | S(%) (SW948CPTH cells; CPT-11 2 μg/ml): 46.5 ± 3.9% | G0-G1(%) (SW948CPTH cells; CPT-11 5 μg/ml): 45.0 ± 3.0% | G2-M(%) (SW948CPTH cells; CPT-11 5 μg/ml): 12.2 ± 2.3% | S(%) (SW948CPTH cells; CPT-11 5 μg/ml): 42.8 ± 4.9% | change of cell cycle (SW948CPTH cells; similar amount of CPT-11): did not cause any change | induction of apoptosis [1]: high level of apoptosis | IC50 (SW948CPTL cells [2]; 168 h): 4.8 µg/mL (≈ 8.18 µM) | IC50 (SW948CPTL cells [2]; 600 h): 12.9 µg/mL (≈ 22 µM) | IC50 (SW948CPTL cells [2]): 16 µg/mL (≈ 27.3 µM) | G0-G1(%) (SW948CPTL cells [3]; CPT-11 1 μg/ml): 50.0 ± 1.7% | G2-M(%) (SW948CPTL cells [3]; CPT-11 1 μg/ml): 10.0 ± 1.4% | S(%) (SW948CPTL cells [3]; CPT-11 1 μg/ml): 40.3 ± 2.4% | G2-M(%) (SW948CPTL cells [3]; CPT-11 2 μg/ml): 11.2 ± 2.6% | S(%) (SW948CPTL cells [3]; CPT-11 2 μg/ml): 43.1 ± 6.5% | G2-M(%) (SW948CPTL cells [3]; CPT-11 5 μg/ml): 13.9 ± 2.2% | S(%) (SW948CPTL cells [3]; CPT-11 5 μg/ml): 40.8 ± 6.4% | change of cell cycle (SW948CPTL cells [3]; similar amount of CPT-11): did not cause any change
